Laboratory results taken from ChEMBL document CHEMBL1147291, “Bioactive compounds from the root of Myrsine africana” (J Nat Prod, 1989).
In brackets after ≈: the same amount, converted by molar mass.

Experiments:
[1] = Cytotoxicity against human KBMRI cells; format: functional; details: read-out: ED50 (the source's name)
A549 = assay: Cytotoxicity against human A549 cells; format: functional; details: read-out: ED50 (the source's name)
HT-29 = assay: Cytotoxicity against human HT-29 cells; format: functional; details: read-out: ED50 (the source's name)
Artemia = assay: Toxicity in brine shrimp; format: organism-based; details: in vivo
P388 = assay: In vivo cytotoxicity against mouse P388 cells relative to control; format: functional
[2] = test system: Agrobacterium tumefaciens; assay: Antitumor activity against Agrobacterium tumefaciens-induced crown gall tumors in potato tubers by potato disk test; format: functional

Cc1cc2c(c(O)c1O)C(=O)c1c(O)cccc1C2=O
EC50 [1]: 5.7 µg/mL (≈ 21.1 µM)
EC50 (A549): 3.1 µg/mL (≈ 11.5 µM)
EC50 (HT-29): 2.8 µg/mL (≈ 10.4 µM)

COc1cc(O)c2c(c1)COC2=O
EC50 [1]: > 100 µg/mL
LC50 (Artemia): > 1000 ppm
EC50 (A549): > 100 µg/mL
EC50 (HT-29): 28 µg/mL (≈ 155 µM)

CC(=O)c1c(C)cc2cccc(O)c2c1O [NEPODIN]
EC50 [1]: 36.7 µg/mL (≈ 170 µM)
LC50 (Artemia): 105 ppm
EC50 (A549): 31 µg/mL (≈ 143 µM)
EC50 (HT-29): 36.7 µg/mL (≈ 170 µM)

Cc1cc(O)c2c(c1)C(=O)c1cc(O)cc(O)c1C2=O [EMODIN]
T/C (P388): 127%
EC50 [1]: 6 µg/mL (≈ 22.2 µM)
LC50 (Artemia): 35 ppm
EC50 (A549): 4.2 µg/mL (≈ 15.5 µM)
inhibition (INH) [2]: 40%
EC50 (HT-29): > 10 µg/mL
